Measurements reported in a melting point compilation (Tetko et al.; mined from patent text by program, amines drawn as free bases though some values may be those of a salt).

In the case of `O=c1[nH]c2sc3c(F)cccc3c2[nH]c1=O`, the melting point is reported as > 35 °C. Compound `CCOP(=O)(OCC)c1cccc(C)c1I` has a melting point of 56 to 58 °C. `CCOC(=O)c1ccc(N=C(Nc2ccc(C(=O)OCC)cc2)c2ccc(OC)cc2)cc1` gave a melting point of 145 to 146 °C. Compound `COc1ccc2ccccc2c1CC(NC(C)=O)C(=O)O` (stereo not given) has a melting point of 201 °C. For `CC12CC=C3c4ccc(O)cc4CCC3C1CCC2=O` (stereo not given), the melting point was 250 to 255 °C. `O=S(=O)(C(=Cc1ccc(Cl)cc1)SC(=Cc1ccc(Cl)cc1)S(=O)(=O)c1ccccc1)c1ccccc1` gave a melting point of 251 °C. For `CCOC(=O)Cc1cc(O)c(C)cc1O`, the melting point was 134 °C. In the case of `CC(C(=S)c1ccnc(NC=O)c1)S(C)=O` (stereo not given), the melting point is reported as 123 to 125 °C. Work on `CC(=O)c1ccc(C(=O)O)o1` yielded a melting point of 189 to 195 °C. With `CC(=O)Nc1ccc(OCC(O)CN(C)C)c(NC(C)=O)c1` (stereo not given) the melting point was 118 to 120 °C. For `OCCCCOCCCCOCCCCOCCCCOCCCCO`, the melting point was 34.5 to 36.5 °C. With `COc1cccc2c1OC(COS(=O)(=O)c1ccc(C)cc1)C2` (stereo not given) the melting point was 98 to 103 °C. Work on `C#CCOC(=O)Nc1ccc(C2=NNC(=O)CC2C)cc1` (stereo not given) yielded a melting point of 204 to 205 °C. Compound `CN(Cc1ccccc1)c1cc(C#N)ccc1C1NC(=O)NC1=O` (stereo not given) has a melting point of 95 to 98 °C. With `CC(=O)NCCCn1cc(C2=C(c3cn(C)c4ccccc34)C(=O)NC2=O)c2ccccc21` the melting point was 132 to 136 °C. `Cc1[nH]n(-c2ccccc2)c(=O)c1C(=O)C(C)C` gave a melting point of 61 to 62 °C. In the case of `Cc1onc(-c2ccccc2)c1C(=O)NCCCN1CCN(c2cc(Cl)ccc2O)CC1`, the melting point is reported as 92 to 98 °C. In the case of `CSCCC(NC(=O)OCc1ccccc1)C(=O)Nc1nncs1` (racemic), the melting point is reported as 155 to 159 °C. Work on `CC(=O)c1ccc(C2COc3c(C)c(C)c(NC(=O)CC(C)(C)C)c(C)c32)cc1` (stereo not given) yielded a melting point of 181 to 182 °C. With `O=C(Nc1ccc(C(=O)N2CCO[C@H]3CCCC[C@@H]32)cc1)c1ccc(Cl)cc1Cl` (relative stereo) the melting point was 227 to 230 °C. `CCCCCCCCC(SCCCCCC)C(=O)Nc1c(SC)cc(SC)c2ncccc12` (stereo not given) showed a melting point of 91 to 93 °C. With `O=[N+]([O-])c1cccc2cc(-c3nccs3)[nH]c12` the melting point was 130 to 131 °C. `CN(C)C(CN1CCN(c2ccc(F)cc2)CC1)CN1c2cccc3cccc(c23)S1(=O)=O` (stereo not given) gave a melting point of 118 °C. In the case of `CC1(C)CC(O)CC(C)(C)N1N=Nc1ccc([N+](=O)[O-])cc1`, the melting point is reported as 108 to 110 °C. Work on `Cc1cc2c(c(C)c1NC(=O)CC(C)(C)C)C(O)C(C)(C)O2` (stereo not given) yielded a melting point of 217 to 218 °C. Compound `O=C(O)c1nccc(Cl)c1O` has a melting point of 228 °C. Compound `C[C@@H]1C[C@@H]([C@H](CC2CCCCC2)NC(=O)OC(C)(C)C)OC1=O` has a melting point of 80 to 82 °C. Compound `CCCCCCCCCOC(=O)c1cc(-c2csc(-c3ccc(OCC)c(OCC)c3)n2)ccc1O` has a melting point of 67 to 68 °C. With `O=C1[C@H]2CCC[C@H]2N(C(=O)CBr)c2ccc(Cl)cc2N1Cc1ccccc1` (relative stereo) the melting point was 163 to 164 °C. Work on `COC(=O)n1nc(C(=O)NC2CN(C)CCN(Cc3ccccc3)C2)c2ccccc21` (stereo not given) yielded a melting point of 158 to 160 °C. `CC1Cc2cc(C#N)ccc2C1=O` (stereo not given) showed a melting point of 90 to 91 °C. In the case of `NC(=O)CCc1cc(-c2ccncc2)sc1-c1ccncc1`, the melting point is reported as 196 °C. `COc1ccc([N+](=O)[O-])cc1N1CCN(C(=O)OC(C)(C)C)CC1` showed a melting point of 136 to 137 °C. For `C#CC1(O)c2ccccc2COc2ccccc21` (stereo not given), the melting point was 93 to 94 °C. Compound `CC1(C)CCCC[C@H]1[C@H](O)c1ccc(F)cc1` has a melting point of 105 to 108 °C. `O=C1CC2c3cc(F)ccc3CCN2C2CCCCC12` (stereo not given) gave a melting point of 130 to 136 °C. `CNCCCCOc1ccc2c(ccn2-c2ccc(F)cc2)c1` gave a melting point of 49 to 50 °C. Compound `Cc1cc(C)n(C(c2ccccc2)(c2ccccc2)c2ccccc2Cl)n1` has a melting point of 195 to 197 °C. For `COC(=O)CN(CC(COc1ccc(Cl)cc1)OC(C)=O)c1ccccc1` (stereo not given), the melting point was 82 °C. Compound `Nc1ccc2c(c1)C(=O)N(C1CCN(Cc3ccccc3)CC1)C2=O` has a melting point of 216 to 218 °C. For `CC(C)(C)C=C[C@H](O)c1ccc(F)cc1`, the melting point was 38 to 40 °C. `C=CCn1c(=O)c2cnc(-n3ccnc3)nc2n(C(C)C)c1=O` showed a melting point of 158 to 160 °C. Compound `Cc1noc(NC(=O)N2CCN(c3nccc(-c4ccccc4F)n3)CC2)c1C` has a melting point of 194 to 195 °C. `Cc1cc(-c2cc(C(F)(F)F)[nH]n2)c(F)cc1Cl` showed a melting point of 159 °C. Compound `CSC(C(=O)c1nsc(NC=O)n1)S(C)=O` (stereo not given) has a melting point of 130 to 132 °C. For `O=C(O)c1cc(NC(=O)C(CS)Cc2ccccc2)cc(C(F)(F)F)c1` (stereo not given), the melting point was 71 to 74 °C. Compound `COC(=O)[C@H](CO)NC(=O)c1ncn2c1CN(C)C(=O)c1ccccc1-2` has a melting point of 180 to 181 °C. Compound `CC(NC(=O)c1cc2ccccc2[nH]1)C(=O)N(c1ccccc1)c1ccccc1` (racemic) has a melting point of 242 °C. In the case of `Cc1cc(N2CCN(c3c(C)c(C)c4c(c3C)CC(C)(C)O4)CC2)ccc1F`, the melting point is reported as 143 to 145 °C. With `CC(C)(C)c1cccc(S(=O)(=O)n2c(Cc3cccc(C(=O)O)c3)cc3cc(C(F)(F)F)ccc32)c1` the melting point was 146 °C.
